The values below come from patent US20140349941A1, “AROMATIC-CATIONIC PEPTIDES AND USES OF SAME” (Cornell University, priority 2011, published 2014).

Where no end group is shown, it is not given here. [ ]: non-standard residue; d: D form.

Test [1] is described as follows: Fluorescence spectroscopy of peptide interaction with cardiolipin. The format is binding. The following applies: for increase in quantal yield of peptide fluorescence: peptide 1 μM. The text has this:
The peptides Dmt-D-Arg-(atn)Dap-Lys-NH2 (SS-19) and Dmt-D-Arg-Phe-Lys-Ald-NH2 (SS-37)cationic peptides carry net positive charge at neutral pH. They are expected to associate with anionic phospholipid cardiolipin based on electrostatic interaction. The interaction of small peptides with lipid membranes can been studied using fluorescence spectroscopy (Surewicz and Epand, 1984). […] Polarity-sensitive fluorescent probes were incorporated into the peptides and fluorescence spectroscopy was used to determine if SS-19, SS-37 and SS-36 interact with CL.
The peptide Dmt-D-Arg-Phe-(atn)Dap-NH2 (SS-19) contains anthraniloyl incorporated into diaminopropionic acid. Anthraniloyl derivatives fluoresce in the 410-420 nm range when excited at 320-330 nm (Hiratsuka T, 1983). The quantum yield of anthraniloyl derivatives is strongly dependent on the local environment, and can increase 5-fold going from water to 80% ethanol, together with a blue shift in the emission maxima (λ max) of <10 nm (Hiratsuka T, 1983). Fluorescence emission spectrum of SS-19 (1 μM) alone, and in the presence of increasing concentrations of CL (5 to 50 μg/ml), was monitored following excitation at 320 nm using Hitachi F-4500 fluorescence spectrophotometer.
The peptide Dmt-D-Arg-Phe-Lys-Ald-NH2 (SS-37) contains an additional amino acid, aladan (Ald), which has been reported to be particularly sensitive to the polarity of its environment and it has been used to probe the electrostatic character of proteins (Cohen et al., 2002). When excited at 350 nm, λmax shifts from 542 nm in water to 409 nm in heptane, accompanied by a significant increase in quantal yield (Cohen et al., 2001). Fluorescence emission spectrum of SS-37 (1 μM) alone, and in the presence of increasing concentrations of CL, was monitored following excitation at 350 nm. Addition of CL (5 to 50 μg/ml) led to a 3-fold increase in quantal yield of SS-37 as well as a clear blue shift in λmax, from 525 nm without CL to 500 nm with 50 μg/ml CL (FIG. 21B).
The peptide Dmt-D-Arg-Ald-Lys-NH2 (SS-36) contains Ald in place Phe^3. Fluorescence emission spectrum of SS-36 (1 μM) alone, and in the presence of increasing concentrations of CL, was monitored following excitation at 350 nm. SS-36 was the most sensitive to the addition of CL, with dramatic increase in quantal yield and blue shift observed with much lower added amounts of CL (1.25 to 5 μg/ml). The λmax shifted from 525 nm without CL to 500 nm with as little as 1.25 μg/ml CL, and quantal yield increased by more than 100-fold with the addition of 5 μg/ml of CL (FIG. 21C).

Test [2] has as its target T1, cytochrome c-CL complex (Homo sapiens, UniProt P99999). Nature of the test: Fluorescence spectroscopy of peptide with cytochrome c in the presence of CL. The format is binding. The following applies: for peptide fluorescence on addition of cytochrome c in the presence of CL: 2 μM cytochrome c; for emission maxima: with CL 2.5 μg/ml. As to the method: Fluorescence emission of SS-19 (10 μM) was monitored in real time (Ex/Em=320 nm/420 nm) using Hitachi F-4500 fluorescence spectrophotometer. […] CL may potentiate the interaction between SS-19 and cytochrome c by serving as an anionic platform for the two cationic molecules.
The quenching by cytochrome c was not displaced by sequential additions of bovine serum albumin (500 μg/ml) (FIG. 23C, A+arrows).
SS-36 also contains the polarity-sensitive fluorescent amino acid aladan.

For test [3], the target named is T1, cytochrome c-CL complex. Nature of the test: Cytochrome c/CL peroxidase activity (amplex red). In kind it is biochemical. The following applies: figure legend FIG. 29A-C; comparison at a fixed concentration of 10 μM (FIG. 29C). An excerpt: The six coordination of the heme in cytochrome c prevents direct interaction of H2O2 with the catalytic metal site, and native cytochrome c in solution is a poor peroxidase. Upon interaction with CL, cytochrome c undergoes a structural change with rupture of the Fe-Met80 coordination. […] The mechanism of action of cytochrome c peroxidase is similar to that of other peroxidases, such as horse radish peroxidase (HRP). Thus it is possible to use the amplex red-HRP reaction to investigate cytochrome c peroxidase activity. In the presence of peroxidase, amplex red (AR) reacts with H2O2 to form the red-fluorescent oxidation product, resorufin (Ex/Em=571/585).
Cytochrome c (2 μM) was mixed with CL (25 μg/ml) and 10 μM H2O2 in 20 mM HEPES, pH 7.4. Amplex red (50 μM) was then added and fluorescence emission monitored in real time using Hitachi F4500 fluorescence spectrophotometer. Addition of amplex red elicited rapid increase in fluorescence signal due to resorufin formation, providing direct evidence for peroxidase activity of cytochrome c/CL complex (FIG. 29A).

Test [4] concerns the target heme environment of cytochrome c (with CL) (Homo sapiens, UniProt P99999). Nature of the test: Soret CD spectrum of cyt C in the presence of CL. The format is binding. To be noted: cyt C 10 μM; CL 30 μg/ml; peptide 10 μM; 20 mM HEPES pH 7.5, 25° C.; FIG. 24. How it is done: Circular dichroism (CD) was carried out to examine the effects of the peptides on protecting the heme environment of cyt C from the acyl chain of CL. For heme proteins, the Soret CD spectrum is strictly correlated with the heme pocket conformation. In particular, the negative 416-420 nm Cotton effect is considered diagnostic of Fe(III)-Met80 coordination in native cyt C (Santucci and Ascoli, 1997). […] CD spectra were obtained using AVIV CD Spectrometer Model 410.
Changes in the Soret CD spectrum of cyt C (10 μM) were recorded in the absence (dotted line) and presence (dashed line) of 30 μg/ml CL, plus addition of different peptides (10 μM) (solid line) (FIG. 24). CD measurements were carried out using 20 mM HEPES, pH 7.5, at 25° C. and expressed as molar ellipticity (θ) (m Deg).

The test system of a further test is isolated mitochondria. Nature of the test: ATP synthesis in isolated mitochondria. In kind it is biochemical, rat. To be noted: mitochondria energized with low concentrations of succinate; FIG. 15. How it is done:
(§1) Fresh mitochondria were isolated from rat kidney as described previously. Electron flux was measured by O2 consumption (Oxygraph Clark electrode) as previously described using different substrates for C1 (glutamate/malate), C2 (succinate), and C3 (TMPD/ascorbate). Assays were carried out under low substrate conditions in order to avoid saturating the enzyme reactions. ATP production in isolated mitochondria was determined kinetically using the luciferase method (Biotherma) in a 96-well luminescence plate reader (Molecular Devices). The initial maximal rate for ATP synthesis was determined over the first minute.
The rate of mitochondrial ATP synthesis was determined by measuring ATP in respiration buffer collected from isolated mitochondria 1 min after addition of […] (FIG. 6). ATP was assayed by HPLC. All experiments were carried out in triplicate, with n=3.
(§2) SS-20 or SS-31 was added at 100 μM concentrations to isolated mitochondria in respiration buffer containing 0.5 mM succinate (complex II substrate) and 400 μM ADP. Similar increases in O2 consumption were observed when low concentrations of complex I substrates (glutamate/malate) were used (data not shown).
Increase in electron flux in the electron transport chain can either result in increase in ATP synthesis or increase in electron leak and generation of free radicals. ATP synthesis in isolated mitochondria was assayed by HPLC.

In another test the target is cytochrome c (with CL) (Homo sapiens, UniProt P99999). Nature of the test: Cytochrome c reduction inhibited by CL. In kind it is biochemical. To be noted: 500 μM GSH; FIG. 25C. How it is done: Cytochrome c is a carrier of electrons between respiratory complex III and IV in mitochondria. Cytochrome c is reduced (Fe^2+) after it accepts an electron from cytochrome c reductase, and it is then oxidized to Fe^3+ by cytochrome c oxidase.
Reduction of cytochrome c (20 μM) was induced by the addition of glutathione (500 μM) in the absence or presence of CL (100 μg/ml) (FIG. 25A). Reduction of cytochrome c was monitored by absorbance at 550 nm using a 96-well UV-VIS plate reader (Molecular Devices). Addition of CL decreased the rate of cytochrome c reduction by half.

The target of the next test is cytochrome c (Homo sapiens, UniProt P99999). Nature of the test: Cytochrome c reduction monitored by absorption spectroscopy (glutathione or NAC as reducing agent). In kind it is biochemical. The following applies: absorbance at 550 nm; FIG. 13. As to the method: Cytochrome c reduction: increasing amounts of aromatic-cationic peptides were added to a solution of oxidized cyt c. The formation of reduced cyt c was monitored by absorbance at […]. The rate of cyt c reduction was determined by non-linear analysis (Prizm software).
Time-resolved UV-Visible absorption spectroscopy was used to study the electron transport process of cyt c in the presence of peptides. Reduced cyt c was monitored by absorbance at a broad-band spectral range (200-1100 nm). The absorption changes were recorded with a UV/Visible spectrophotometer (Ultrospec 3300 pro, GE) in quartz cells with path lengths of 1 or 2 mm. N-acetylcysteine (NAC) and glutathione were used as electron donors to reduce oxidized cyt c. The rate constant of cyt c reduction was estimated by adding various concentrations of peptides. The dose dependence of the peptides was correlated to the cyt c reduction kinetics.
Absorption spectroscopy (UltroSpec 3300 Pro; 220-1100 nm) was used to determine if SS-31 modulates cyt c reduction (FIG. 1). Reduction of cyt c with glutathione is associated with multiple shifts in the Q band (450-650 nm), with a prominent shift at 550 nm.
Reduction of cyt c was monitored by increase in absorbance at 550 nm. […] Similar results were obtained using N-acetylcysteine (NAC) as a reducing agent (not shown).

Test [5] relates to isolated rat kidney mitochondria. Nature of the test: O2 consumption of isolated rat kidney mitochondria (Oxygraph). In kind it is biochemical. As to the method:
as §1
Oxygen consumption of isolated rat kidney mitochondria was determined using the Oxygraph (FIG. 5). Rates of respiration were measured in the presence of different concentrations of SS-31 in state 2 (400 μM ADP only), state 3 (400 μM ADP and 500 μM substrates) and state 4 (substrates only). All experiments were done in triplicate with n=4-7.
as §2
SS-20 or SS-31 was added at 10 μM or 100 μM concentrations to isolated mitochondria in respiration buffer containing glutamate/malate (complex I substrate), 0.5 mM succinate (complex II substrate) or 3 μM TMPD/1 mM ascorbate (direct reductant of cyt C). 400 μM ADP was added to initiate State 3 respiration.

Sequence of heme environment of cytochrome c (with CL) (P99999 2-105 limits assumed, species assumed): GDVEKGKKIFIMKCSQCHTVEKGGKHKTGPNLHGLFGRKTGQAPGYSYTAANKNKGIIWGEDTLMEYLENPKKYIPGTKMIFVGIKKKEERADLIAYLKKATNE
T1 sequence (P99999 2-105 limits assumed, species assumed, one chain of several): as the sequence (P99999 2-105 limits assumed, species assumed) above
Sequence of cytochrome c (with CL) (P99999 2-105 limits assumed, species assumed): as above
Sequence of cytochrome c (P99999 2-105 limits assumed, species assumed): as above

Consider Dmt-D-Arg-Phe-Lys-Ald-NH2 [SS-37], for which the “increase in quantal yield of peptide fluorescence” value in test [1] (CL 5-50 μg/ml) worked out at 3 fold. Further, the “λmax of fluorescence emission” value is reported as 500 nm in test [1] (with 50 μg/ml CL, excitation 350 nm) and 525 nm in test [1] (without CL, excitation 350 nm). At cytochrome c-CL complex [2] (CL 50 μg/ml, BSA 500 μg/ml, FIG. 23C), the “displacement of cytochrome c quenching by bovine serum albumin in the presence of CL” value is given as “not displaced”. On cytochrome c-CL complex [2] (peptide 10 μM, CL 50 μg/ml), the “peptide fluorescence on addition of cytochrome c in the presence of CL” value was “similarly quenched”. For the same substance, the “peroxidase activity in cytochrome c/CL complex” value (“peroxidase activity” for short) at cytochrome c-CL complex [3] is listed as “preventing peroxidase activity in cytochrome c/CL complex”.

Turning to F[dR]FK-NH2 [SS-20], the “disappearance of the negative Cotton effect caused by CL (heme environment of cytochrome c)” value (from here on “disappearance”) in test [4] is reported as “Protect the Heme Environment of Cytochrome C from the Acyl Chain of CL”. For the same substance, the “rate of ATP production” value in the test with isolated mitochondria is “significant increase in the rate of ATP production”. The “CL inhibition of cyt C reduction” value at cytochrome c (with CL) was “prevented CL inhibition of cyt C reduction”. The “kinetics of cyt c reduction induced by glutathione (GSH)” value at cytochrome c was “can accelerate the kinetics of cyt c reduction”. In addition, the “peroxidase activity” value at cytochrome c-CL complex [3] is given as “preventing peroxidase activity in cytochrome c/CL complex”. Besides, in test [5] (glutamate/malate, succinate or TMPD/ascorbate, 400 μM ADP, FIG. 26), the “O2 consumption in state 3 respiration” value is reported as “increases O2 consumption in state 3 respiration”. The “electron flux, as measured by O2 consumption” value in test [5] (peptide 10 μM or 100 μM, complex I, complex II substrate or TMPD/ascorbate, FIG. 26) is recorded as “can promote electron flux”; in test [5] (peptide 100 μM, 0.5 mM succinate, 400 μM ADP, FIG. 14) it was “can promote electron flux”.

Take “D-Arg-Tyr-Lys-Phe-NH2 ([dR]YKF-NH2; N-terminus assumed; SMILES N=C(N)NCCC[C@@H](N)C(=O)N[C@@H](Cc1ccc(O)cc1)C(=O)N[C@@H](CCCCN)C(=O)N[C@@H](Cc1ccccc1)C(N)=O) [SPI-231]”: the “disappearance” value in test [4] is “Protect the Heme Environment of Cytochrome C from the Acyl Chain of CL”. Also, the “CL inhibition of cyt C reduction” value with cytochrome c (with CL) was “prevented CL inhibition of cyt C reduction”. Also, the “peroxidase activity” value with cytochrome c-CL complex [3] is “preventing peroxidase activity in cytochrome c/CL complex”.

In the case of Dmt-D-Arg-Ald-Lys-NH2 [SS-36], the “disappearance” value in test [4] is listed as “Protect the Heme Environment of Cytochrome C from the Acyl Chain of CL”. Moreover, in test [1] (CL 5 μg/ml, excitation 350 nm), the “increase in quantal yield of peptide fluorescence” value was “more than 100 fold”. Further, the “λmax of fluorescence emission” value in test [1] (with 1.25 μg/ml CL, excitation 350 nm) is listed as 500 nm; in test [1] (without CL, excitation 350 nm), 525 nm. The “peptide fluorescence on addition of cytochrome c in the presence of CL” value on cytochrome c-CL complex [2] (CL 2.5 μg/ml, FIG. 23D) is recorded as “dramatic quenching of peptide's fluorescence”. The “peptide fluorescence on addition of CL” value on cytochrome c-CL complex [2] (CL 2.5 μg/ml, FIG. 23D) is recorded as “increase in SS-36 fluorescence”. For the same substance, the emission maxima at cytochrome c-CL complex [2] (after 2 μM cytochrome c) is 450 nm; at cytochrome c-CL complex [2] (before cytochrome c), 510 nm. On cytochrome c-CL complex [3], the “peroxidase activity” value is “preventing peroxidase activity in cytochrome c/CL complex”.
